Data set [1] is described as follows: Measurement of adenosine in plasma of fractured mice. It is filed as in vivo, mouse. The note with it: 3 days after implantation of adenosine-loaded biomaterial following tibial fracture. The protocol:
Peripheral blood was collected and immediately incubated in ice cold stop solution at a 1:2 ratio (blood to stop solution) to inhibit degradation of adenosine (Feldman M D, et al. (1992) Clin Chem. 38:256-262). Stop solution comprised of 0.2 mM dipyridamole (Tocris, Minneapolis, MN), 5 μM erythro-9 (2-hydroxy-3-nonyl)-adenine (EHNA; Tocris), 62 μM Adenosine 5′-(α,β-methylene) diphosphate sodium salt (APCP), 5 mM EDTA, and 25 IU/mL heparin (Tocris) in PBS. The blood was centrifuged at 2000 rcf for 10 min at 4° C. to separate cells from plasma. Adenosine assay kit (Cell Biolabs, San Diego, CA, Cat #MET-5090) was used to measure adenosine levels from plasma according to manufacturer's protocol. Briefly, a reaction mixture comprised of fluorometric Probe, HRP, adenosine deaminase, purine nucleoside phosphorylase, xanthine oxidase, assay buffer and a control mix comprised of fluorometric Probe, HRP, purine nucleoside phosphorylase, xanthine oxidase, assay buffer were made and mixed with 50 μL of plasma for 15 min. at room temp. The relative fluorescence unit (RFU) was measured using a microplate reader with excitation at 570 nm and emission at 590 nm. Adenosine concentration was determined using a standard curve of known concentrations and subtracted for the background by using the values in control mix.

In data set [2] the test system is mouse model of stabilized unilateral tibial fracture. As to the kind of experiment: Open field activity after tibial fracture. It is filed as in vivo. The procedure: The aim of the experiments described herein was to examine the effectiveness of local delivery of adenosine in tibial bone injury to concurrently attenuate fracture/post-surgical pain while promoting healing. All animal work was performed in compliance with the National Institutes of Health (NIH) and institutional guidelines, and the fracture surgery and biomaterial implantation protocols approved by the Institutional Animal Care and Use Committee at Duke University (Protocol Registry Number A151-20-07) were followed. C57BL/6J mice were used to study fracture nociception and the effect of local delivery of adenosine to mitigate pain and promote bone regeneration. Lepr-cre; tdTomato reporter mice were used for tracing of LepR(+) lineage cells after fracture. To determine the effect of adenosine on pain and healing, fracture surgeries were performed and treated immediately with PEGDA-6ACA-PBA macroporous hydrogels loaded with adenosine as treatment group or without adenosine as control group (Zeng Y, et al. (2020) Adv Mater. 32:e1906022). Behavioral tests for pain and limb function were assessed by weight bearing and open field locomotion. A priori power analysis was used to estimate the sample size requiring a statistical power (1−β) of 80% at the significance level of α=5%. On the basis of the power calculation, the indicated number was 8 animals per group for fracture pain and 4 animals per group for fracture healing. Ten animals per group were used to study the effect of adenosine on fracture pain, and 5 animals per group were used to examine the effect of adenosine on fracture healing. The exclusion criteria for experiments were animals that died due to the surgical procedures or shift of the intramedullary pin identified after experimental endpoint post-mortem. No randomization was used and researchers were not blinded. Measurement of adenosine in the circulation was performed by using an adenosine assay. The in vitro functional activity of DRG neurons was assessed by calcium and membrane potential imaging and the expression of proteins were assessed by histology or immunofluorescence imaging, and gene expression by RT-qPCR. Fracture healing was analyzed by microCT and histology. The study design and timeline of animal procedures (pin placement, surgery, therapeutic intervention with and without adenosine, and behavioral tests) are illustrated in FIG. 10A (weight bearing) and FIG. 10A (open field locomotion).
In all experiments, 12-week-old to 16-week-old C57BL/6J male mice (Jackson Laboratory, Bar Harbor, ME) and Lepr-cre; tdTomato reporter mice were used. The average mouse weight was 25 grams and mice were housed in groups of four to five, and kept on a 12-hr light-dark cycle with lights off at 1800 hr. All animals had ad libitum access to chow (PMI LabDiet 5001) and water. Fracture surgeries were performed as previously described (Zeng Y, et al. (2020) Adv Mater. 32:e1906022). Animals were anesthetized by isoflurane and injected with 1 mg/kg buprenorphine SR-LAB (ZooPharm, Laramie, WY). Each mouse was then placed in a supine position with the right tibia disinfected. After skin incision and reflection, proximal to the right knee, a 0.7-mm pin was inserted from the tibial plateau through the medullary cavity to stabilize the tibia, and a cut was made at the tibial midshaft to induce a transverse fracture. Bupivacaine (0.5%; Hospira, Lake Forest, IL) at ˜1 mg/kg body weight was applied at the surgical site following wound closure using 2 reflex clips (5 mm). For animals treated with control and adenosine-loaded macroporous hydrogels, macroporous hydrogels measuring approximately 5 mm (length)×3 mm (width)×1 mm (thick) containing either 1.05±0.1 mg adenosine (ADO) or no adenosine (CTL) were implanted adjacent to the fractures immediately. […] The animals were treated with the macroporous hydrogels with or without adenosine immediately following the fracture. […]

Setting [3] is: 7 dpf, sum over 60 min, ratio post-/pre-fracture.

From patent US20250152616A1, “COMPOSITIONS FOR AND METHODS OF TREATING, PREVENTING, AND/OR MITIGATING PAIN” (Duke University, priority 2022, published 2025) come the findings set out here.

Each structure is given as a SMILES string.

`Nc1ncnc2c1ncn2[C@@H]1O[C@H](CO)[C@@H](O)[C@H]1O` [adenosine]: the “adenosine level in peripheral blood vs control biomaterials” value in data set [1] is listed as “No significant increase”. Further, the “effect size of treatment on open field parameters” value in data set [2] (7 dpf, effect size r and Cohen's d, all measured parameters) was “large effect sizes”. In addition, in data set [2] (setting [3]), the “ambulatory activity counts vs control” value was “significantly higher”, the “ambulatory time vs control” value is recorded as “significantly higher”, the “rest time vs control” value is “lower” and the “total distance vs control” value is “significantly higher”. Besides, in data set [2] (setting [3]), the “vertical activity counts vs control” value is “significantly higher” and the “vertical movement time vs control” value is “significantly higher”. In addition, the “open field activity vs control at 5-min intervals (vertical, ambulatory, distance; lower rest time)” value in data set [2] (7 days post-fracture, most of the 5-min intervals, ratio post-/pre-fracture) is recorded as “higher levels of activity”.
